“And” between values parts separate entries of the source, which are not always exact repeats. Equal entries are not always repeated. Toxic doses and inconclusive results are not listed. Rule for the calls: active = survival T/C of 150% or more; inactive = T/C below 125% in these data.
System: BDF1 mice, P388 leukemia ip, median survival T/C
Experiment: NCI In Vivo Anticancer Drug Screen. Data for tumor model P388 Leukemia (intraperitoneal) in B6D2F1 (BDF1) mice
Conditions: endpoint: median survival time, higher = longer survival
In short: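 Reported as T/C, where T is the survival measurement in dosed animals and C the same measurement in vehicle controls.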

[1] = dose: 100.0 mg/kg/injection, schedule: Q01DX009 (ip), vehicle: Klucel (hydroxypropylcellulose) (HPC)
[2] = dose: 200.0 mg/kg/injection, schedule: Q01DX009 (ip), vehicle: Klucel (hydroxypropylcellulose) (HPC)
[3] = dose: 400.0 mg/kg/injection, schedule: Q01DX009 (ip), vehicle: Klucel (hydroxypropylcellulose) (HPC)
[4] = dose: 100.0 mg/kg/injection, schedule: Q01DX009 (ip), vehicle: saline with Tween-80
[5] = dose: 200.0 mg/kg/injection, schedule: Q01DX009 (ip), vehicle: saline with Tween-80
[6] = dose: 400.0 mg/kg/injection, schedule: Q01DX009 (ip), vehicle: saline with Tween-80
[7] = dose: 50.0 mg/kg/injection, schedule: Q01DX005 (ip), vehicle: saline with Tween-80
[8] = dose: 100.0 mg/kg/injection, schedule: Q01DX005 (ip), vehicle: saline with Tween-80
[9] = dose: 100.0 mg/kg/injection, schedule: Q04DX003 (ip), vehicle: saline with Tween-80
[10] = dose: 200.0 mg/kg/injection, schedule: Q04DX003 (ip), vehicle: saline with Tween-80
[11] = dose: 400.0 mg/kg/injection, schedule: Q04DX003 (ip), vehicle: saline with Tween-80
[12] = dose: 200.0 mg/kg/injection, schedule: Q01DX005 (ip), vehicle: saline with Tween-80
[13] = dose: 100.0 mg/kg/injection, schedule: Q01DX001 (ip), vehicle: Klucel (hydroxypropylcellulose) (HPC)
[14] = dose: 100.0 mg/kg/injection, schedule: Q04DX003 (ip), vehicle: Klucel (hydroxypropylcellulose) (HPC)
[15] = dose: 200.0 mg/kg/injection, schedule: Q01DX001 (ip), vehicle: Klucel (hydroxypropylcellulose) (HPC)
[16] = dose: 200.0 mg/kg/injection, schedule: Q04DX003 (ip), vehicle: Klucel (hydroxypropylcellulose) (HPC)
[17] = dose: 400.0 mg/kg/injection, schedule: Q01DX001 (ip), vehicle: Klucel (hydroxypropylcellulose) (HPC)

Measured: T/C

C/C=C/C1=C(Cl)C(=O)[C@@H](Cl)[C@@]1(O)C(=O)OC
inactive: dose: 0.31 mg/kg/injection, schedule: Q01DX009 (ip), vehicle: saline with Tween-80 106 % of control | dose: 0.63 mg/kg/injection, schedule: Q01DX009 (ip), vehicle: saline with Tween-80 115 % of control | dose: 1.25 mg/kg/injection, schedule: Q01DX009 (ip), vehicle: saline with Tween-80 106 % of control and 117 % of control | dose: 2.5 mg/kg/injection, schedule: Q01DX001 (ip), vehicle: saline with Tween-80 106 % of control | dose: 2.5 mg/kg/injection, schedule: Q04DX003 (ip), vehicle: saline with Tween-80 105 % of control | dose: 4.4 mg/kg/injection, schedule: Q01DX009 (ip), vehicle: saline with Tween-80 121 % of control | dose: 5.0 mg/kg/injection, schedule: Q01DX001 (ip), vehicle: saline with Tween-80 101 % of control | dose: 5.0 mg/kg/injection, schedule: Q04DX003 (ip), vehicle: saline with Tween-80 110 % of control | dose: 6.6 mg/kg/injection, schedule: Q01DX009 (ip), vehicle: saline with Tween-80 122 % of control | dose: 8.8 mg/kg/injection, schedule: Q01DX009 (ip), vehicle: saline with Tween-80 114 % of control | dose: 10.0 mg/kg/injection, schedule: Q01DX001 (ip), vehicle: saline with Tween-80 108 % of control | dose: 10.0 mg/kg/injection, schedule: Q04DX003 (ip), vehicle: saline with Tween-80 108 % of control | dose: 13.3 mg/kg/injection, schedule: Q01DX009 (ip), vehicle: saline with Tween-80 123 % of control | dose: 17.0 mg/kg/injection, schedule: Q01DX001 (ip), vehicle: saline with Tween-80 119 % of control | dose: 20.0 mg/kg/injection, schedule: Q01DX001 (ip), vehicle: saline with Tween-80 112 % of control

CCC(C)C(C)(COC(N)=O)COC(N)=O (configuration not stated)
inactive: [1] 90 % of control | [2] 86 % of control | [3] 95 % of control

Cc1ccnc(NC(=O)Nc2cc(Cl)ccc2Cl)c1
inactive: dose: 12.5 mg/kg/injection, schedule: Q01DX009 (ip), vehicle: Klucel (hydroxypropylcellulose) (HPC) 101 % of control | dose: 25.0 mg/kg/injection, schedule: Q01DX009 (ip), vehicle: Klucel (hydroxypropylcellulose) (HPC) 103 % of control | dose: 50.0 mg/kg/injection, schedule: Q01DX009 (ip), vehicle: Klucel (hydroxypropylcellulose) (HPC) 120 % of control

CC(=O)/C=C/c1ccccc1
inactive: [4] 91 % of control and 109 % of control | [5] 108 % of control and 118 % of control | [6] 117 % of control

C=C1CCC2(C)C(O)CC3(C)C(CCC4C5(C)CCC(OC(C)=O)C(C)(C)C5CCC43C)C2C1C (configuration not stated)
inactive: dose: 1.0 mg/kg/injection, schedule: Q01DX009 (ip), vehicle: saline + alcohol 97 % of control | dose: 2.0 mg/kg/injection, schedule: Q01DX009 (ip), vehicle: saline + alcohol 106 % of control | dose: 4.0 mg/kg/injection, schedule: Q01DX009 (ip), vehicle: saline + alcohol 92 % of control

CCCC1CC[N-]CC1.CCCC1CC[N-]CC1.[Cl][Cu][Cl]
inactive: dose: 2.0 mg/kg/injection, schedule: Q01DX009 (ip), vehicle: saline 89 % of control | dose: 4.0 mg/kg/injection, schedule: Q01DX009 (ip), vehicle: saline 100 % of control | dose: 8.0 mg/kg/injection, schedule: Q01DX009 (ip), vehicle: saline 100 % of control

COc1cc(N=Nc2ccc(O)c3ncccc23)c(OC)cc1N=Nc1ccc([N+](=O)[O-])cc1
inactive: [7] 101 % of control | [8] 111 % of control

CC(C)(C1c2ccccc2C(=NO)c2ccccc21)[N+](=O)[O-] (configuration not stated)
inactive: [4] 109 % of control | [9] 91 % of control | [5] 90 % of control | [10] 100 % of control | [6] 100 % of control | [11] 91 % of control

Cc1cccc(Nc2sc(C(=O)c3cc4cc(Cl)ccc4o3)c(N)c2C#N)c1
inactive: dose: 50.0 mg/kg/injection, schedule: Q01DX009 (ip), vehicle: saline with Tween-80 108 % of control | [4] 102 % of control | [5] 111 % of control

Cn1c2ccccc2c(=S)c2c(O)cc3c(c21)C=CC(C)(C)O3
inactive: [7] 89 % of control | [8] 90 % of control | [12] 89 % of control

S=C(NNC(=S)Nc1ccc(Cl)cc1)NNc1ccccc1
inactive: dose: 25.0 mg/kg/injection, schedule: Q01DX009 (ip), vehicle: other 100 % of control | dose: 50.0 mg/kg/injection, schedule: Q01DX009 (ip), vehicle: other 100 % of control | dose: 50.0 mg/kg/injection, schedule: Q04DX003 (ip), vehicle: Klucel (hydroxypropylcellulose) (HPC) 104 % of control | [13] 100 % of control | dose: 100.0 mg/kg/injection, schedule: Q01DX009 (ip), vehicle: other 115 % of control | [14] 100 % of control | dose: 150.0 mg/kg/injection, schedule: Q01DX009 (ip), vehicle: Klucel (hydroxypropylcellulose) (HPC) 110 % of control | [15] 90 % of control | [16] 100 % of control | dose: 220.0 mg/kg/injection, schedule: Q01DX009 (ip), vehicle: Klucel (hydroxypropylcellulose) (HPC) 110 % of control | dose: 225.0 mg/kg/injection, schedule: Q01DX009 (ip), vehicle: Klucel (hydroxypropylcellulose) (HPC) 110 % of control | dose: 335.0 mg/kg/injection, schedule: Q01DX009 (ip), vehicle: Klucel (hydroxypropylcellulose) (HPC) 110 % of control | [17] 104 % of control

O=c1oc(-c2ccc(C[n+]3ccc4ccccc4c3)cc2)nc2ccccc12
inactive: [7] 100 % of control | [8] 99 % of control | [12] 104 % of control

CSc1ncc2ncn(C3OC(CO)C(O)C3O)c2n1 (configuration not stated)
inactive: [13] 86 % of control | [1] 110 % of control | [4] 86 % of control | [14] 95 % of control | [9] 95 % of control | [15] 100 % of control | [2] 105 % of control | [5] 95 % of control | [16] 100 % of control | [10] 95 % of control | [17] 109 % of control | [3] 105 % of control | [6] 86 % of control | dose: 400.0 mg/kg/injection, schedule: Q04DX003 (ip), vehicle: Klucel (hydroxypropylcellulose) (HPC) 100 % of control | [11] 100 % of control

O=Nc1ccc(O)c2ncccc12
inactive: dose: 50.0 mg/kg/injection, schedule: Q01DX001 (ip), vehicle: Klucel (hydroxypropylcellulose) (HPC) 118 % of control

CC1=CCCC2(CCC3(C)CC32)C1(C)C (configuration not stated)
inactive: dose: 45.0 mg/kg/injection, schedule: Q01DX009 (ip), vehicle: saline 90 % of control | dose: 50.0 mg/kg/injection, schedule: Q01DX009 (ip), vehicle: saline 100 % of control | dose: 67.0 mg/kg/injection, schedule: Q01DX009 (ip), vehicle: saline 109 % of control | dose: 100.0 mg/kg/injection, schedule: Q01DX009 (ip), vehicle: saline 113 % of control and 120 % of control

[CH3][Sn]([CH3])([CH3])[S]C(=S)N1CCOCC1
inactive: dose: 0.75 mg/kg/injection, schedule: Q01DX009 (ip), vehicle: Klucel (hydroxypropylcellulose) (HPC) 97 % of control

CCN(O)C(N)=O
inactive: [4] 108 % of control | [9] 96 % of control and 104 % of control | [5] 100 % of control | [10] 88 % of control and 91 % of control | [6] 100 % of control | [11] 96 % of control and 100 % of control

Reference: PubChem BioAssay AID328 (DTP/NCI, 2004)
